Data taken from paper PMC12596500, “Affinity-selected peptide ligands specifically bind i-motif DNA and modulate c-Myc gene expression” (Nucleic Acids Research, 2025).
Where two headings read alike, the source gives them in different places. Peptide text beside a SMILES is read from it.

Tests used:
c-MycG27 = experiment: CD melting of c-MycG27; type: binding; details: 10 µM DNA; for TM c-MycG27: 10 mM NaCaco pH 6.6, 10 molar eqv. peptide, mean ± SEM (n=4); for effect on c-MycG27 thermal stability, in words: pH 6.6, 10 molar equivalents peptide
Experimental: (§1) Circular Dichroism (CD) melting experiments were performed in a Jasco J-1500 spectropolarimeter with 10 µM DNA samples in 10 mM sodium cacodylate buffer at pH 6.6 using a 1 mm path length quartz cuvette. […] The samples were kept at 5°C for 5 min before starting the melt, with a temperature increase of 1°C/min, a 0.5°C data interval, and a 60-s holding time at each target temperature. Four scans were accumulated data pitch of 0.5 nm, a scanning speed of 200 nm/min, 1 s response time, 2 nm bandwidth, and 200 mdeg sensitivity. Furthermore, two CD melting experiment repeats were performed recording C-rich c-Myc at 288 and 320 nm, G-rich c-Myc at 264 and 320 nm, and dsDNA at 253 and 320 nm with the settings as described for full spectrum measurements. Data were zero corrected to 320 nm and baseline drift. The melting temperature (TM) was concluded using the Boltzmann or biphasic fitting curve on the folded fraction data using GraphPad Prism version 10.1.2. Data were processed as mean ± SEM (n = 4) and one-way ANOVA followed by Bonferroni post-hoc test to determine significant changes between peptides and controls.

DAPc = experiment: UV titration, DAPc; type: binding; parameters: key to Kd DAPc, 100 mM KCl: Binding classified as non-specific (NS) showed no consistent or concentration-dependent pattern, under the tested conditions; key to Kd DAPc: NS = non-specific binding indicates where no significant pattern of binding was observed at the concentration range of the experiment; details: for Kd DAPc: UV titration at 350 nm, 10 µM peptide, 10 mM sodium cacodylate pH 6.6, no KCl; for Kd DAPc, 100 mM KCl: UV titration, 10 mM sodium cacodylate 100 mM potassium chloride pH 6.6, two experiments
Experimental: (§2) UV titrations were recorded using an Agilent Cary-60 UV/VIS spectrometer with a 10 mm path length black-walled quartz cuvette. Oligonucleotides (c-MycC27, c-MycC52, c-MycG27, c-MycG52, DAPc, DAPg, and dsDNA; sequences listed in Supplementary Table S1) were annealed as 250 µM stock solutions in 10 mM sodium cacodylate buffer (pH 6.6) in the presence or absence of 100 mM KCl. Spectra were recorded at room temperature over a wavelength range of 300–500 nm with 1 nm intervals. Buffer-only spectra were recorded and subtracted from each dataset as blanks. Peptide ligands were prepared as 1 mM stock solutions in DMSO and added to the cuvette at a final concentration of 10 µM in buffer prior to DNA addition. DNA stock was diluted to 50 µM in buffer and was added stepwise to the peptide solution to reach 2.5 µM final concentration, followed by additions from the 250 µM DNA stock to reach final DNA concentrations of 30 or 50 µM. The absorbance at 350 nm was monitored and plotted against DNA concentration. Binding curves were fitted using a one-site binding model in GraphPad Prism version 10.1.2, and Kd values were determined from normalized data to represent the DNA-ligand bound fraction.
(§3) Despite the demonstrable importance of the extended five-tract C-rich sequence within the c-Myc promoter, most studies looking at ligand binding use the shorter sequences. […] Although the iM-targeting antibody is specific for iM as a structure, it also binds multiple types of iM-structures.

DAPg = experiment: UV titration, DAPg; type: binding; parameters: key to Kd DAPg, 100 mM KCl: Binding classified as non-specific (NS) showed no consistent or concentration-dependent pattern, under the tested conditions; key to Kd DAPg: NS = non-specific binding indicates where no significant pattern of binding was observed at the concentration range of the experiment; details: for Kd DAPg: UV titration at 350 nm, 10 µM peptide, 10 mM sodium cacodylate pH 6.6, no KCl; for Kd DAPg, 100 mM KCl: UV titration, 10 mM sodium cacodylate 100 mM potassium chloride pH 6.6, two experiments
Experimental: as §2, §3

dsDNA = experiment: UV titration, dsDNA; type: binding; parameters: key to Kd dsDNA, 100 mM KCl: Binding classified as non-specific (NS) showed no consistent or concentration-dependent pattern, under the tested conditions; key to Kd dsDNA: NS = non-specific binding indicates where no significant pattern of binding was observed at the concentration range of the experiment; details: for Kd dsDNA: UV titration at 350 nm, 10 µM peptide, 10 mM sodium cacodylate pH 6.6, no KCl; for Kd dsDNA, 100 mM KCl: UV titration, 10 mM sodium cacodylate 100 mM potassium chloride pH 6.6, two experiments
Experimental: as §2, §3

c-MycC52 [1] = experiment: UV titration, c-MycC52; type: binding; details: for Kd: average of three experiments ± SD, SD; for selectivity for c-MycC52 against the complementary G4 forming sequence: from UV titration Kd values
Experimental: as §2, §3

c-MycG52 [2] = experiment: UV titration, c-MycG52; type: binding
Experimental: as §2, §3

c-MycC52 [3] = details: 10 µM DNA; for TM c-MycC52, first (lower) transition / TM c-MycC52, second (higher) transition: 10 mM NaCaco pH 6.6, 10 molar eqv. peptide, mean ± SEM (n=4); for ΔTM c-MycC52, transition at lower temperatures / ΔTM c-MycC52, second transition at higher temperatures: 10 mM sodium cacodylate pH 6.6, 10 molar equivalents peptide vs DMSO, mean ± SEM (n = 4)
Experimental: as §1

c-MycG52 [4] = details: 10 µM DNA; for TM c-MycG52: 10 mM NaCaco pH 6.6, 10 molar eqv. peptide, mean ± SEM (n=4); for ΔTM c-MycG52: 10 mM sodium cacodylate pH 6.6, 10 molar equivalents peptide vs DMSO, mean ± SEM (n = 4)
Experimental: as §1

[5] = UV titration at 350 nm, 10 µM peptide, 10 mM sodium cacodylate pH 6.6, no KCl, room temperature, read-out: Kd c-MycC52
[6] = read-out: Kd c-MycC52, 100 mM KCl, UV titration, 10 mM sodium cacodylate 100 mM potassium chloride pH 6.6
[7] = UV titration at 350 nm, 10 µM peptide, 10 mM sodium cacodylate pH 6.6, no KCl, binding did not plateau at the concentration range, read-out: Kd c-MycG52
[8] = read-out: Kd c-MycG52, 100 mM KCl, UV titration, 10 mM sodium cacodylate 100 mM potassium chloride pH 6.6, average of three experiments ± SD, SD

Structure (SMILES): CC(=O)N1CCC[C@H]1C(=O)N[C@H](C(=O)N[C@@H](CC(N)=O)C(=O)N[C@H](C(=O)N[C@@H](CO)C(=O)NCC(=O)N[C@@H](CCCNC(=N)N)C(=O)N[C@@H](CC(N)=O)C(=O)N[C@@H](Cc1ccc(O)cc1)C(=O)N[C@@H](CC(C)C)C(=O)N[C@@H](Cc1ccccc1)C(=O)N[C@@H](CS)C(N)=O)C(C)C)[C@@H](C)O [Pep-PTN] (Ac-PTNVSGRNYLFC-NH2)
- TM c-MycG27 (c-MycG27; SEM): 50 ± 1.0 °C
- ΔTM c-MycG27 (c-MycG27; 10 mM sodium cacodylate pH 6.6, 10 molar equivalents peptide vs DMSO, mean ± SEM (n = 4), SEM): −1 ± 0.5 °C
- effect on c-MycG27 thermal stability, in words (c-MycG27): neither stabilized nor destabilized
- Kd DAPc (DAPc): NS
- Kd DAPc, 100 mM KCl (DAPc): NS
- Kd DAPg (DAPg): NS
- Kd DAPg, 100 mM KCl (DAPg): NS
- Kd dsDNA (dsDNA): NS
- Kd dsDNA, 100 mM KCl (dsDNA): NS
- Kd (c-MycC52 [1]; [5]): 0.93 ± 0.08 µM
- selectivity for c-MycC52 against the complementary G4 forming sequence (c-MycC52 [1]): about 50 fold
- Kd (c-MycC52 [1]; [6]): 1.54 ± 0.03 µM
- Kd (c-MycG52 [2]; [7]): > 50 µM
- Kd (c-MycG52 [2]; [8]): 45 ± 4 µM
- TM c-MycC52, first (lower) transition (c-MycC52 [3]; SEM): 32 ± 2.0 °C
- TM c-MycC52, second (higher) transition (c-MycC52 [3]; SEM): 79 ± 0.8 °C
- ΔTM c-MycC52, transition at lower temperatures (c-MycC52 [3]): no significant change
- ΔTM c-MycC52, second transition at higher temperatures (c-MycC52 [3]; SEM): −2 ± 0.3 °C
- ΔTM c-MycC52, transition at lower temperatures (c-MycC52 [3]; SEM): −1 ± 0.5 °C
- decrease in TM of the more stable iM population of c-MycC52 (c-MycC52 [3]; pH 6.6, 10 molar equivalents peptide, given as a decrease, without sign): 2 ± 0.3 °C
- TM c-MycG52 (c-MycG52 [4]): 45 ± 1.0 °C
- ΔTM c-MycG52 (c-MycG52 [4]): +2 ± 0.3 °C

Structure (SMILES): CC(=O)N[C@H](C(=O)N[C@@H](CO)C(=O)N[C@@H](CCC(=O)O)C(=O)N[C@@H](C)C(=O)N[C@@H](Cc1c[nH]c2ccccc12)C(=O)N[C@@H](CCCCN)C(=O)N[C@@H](CCC(=O)O)C(=O)N[C@H](C(=O)N[C@@H](CCCCN)C(=O)NCC(=O)N[C@@H](Cc1ccccc1)C(=O)N[C@@H](Cc1ccccc1)C(N)=O)C(C)C)C(C)C [Pep-VSE] (Ac-VSEAWKEVKGFF-NH2)
- TM c-MycG27 (c-MycG27; SEM): 48 ± 1.0 °C
- effect on c-MycG27 thermal stability, in words (c-MycG27): neither stabilized nor destabilized
- Kd DAPc (DAPc): NS
- Kd DAPc, 100 mM KCl (DAPc): NS
- Kd DAPg (DAPg): NS
- Kd DAPg, 100 mM KCl (DAPg): NS
- Kd dsDNA (dsDNA): NS
- Kd dsDNA, 100 mM KCl (dsDNA): NS
- Kd (c-MycC52 [1]; [5]): 0.43 ± 0.03 µM
- selectivity for c-MycC52 against the complementary G4 forming sequence (c-MycC52 [1]): ~100 fold
- Kd (c-MycC52 [1]; [6]): 0.69 ± 0.06 µM
- Kd (c-MycG52 [2]; [7]): > 50 µM
- Kd (c-MycG52 [2]; [8]): 35 ± 3 µM
- TM c-MycC52, first (lower) transition (c-MycC52 [3]; SEM): 33 ± 0.9 °C
- TM c-MycC52, second (higher) transition (c-MycC52 [3]; SEM): 74 ± 0.7 °C
- ΔTM c-MycC52, second transition at higher temperatures (c-MycC52 [3]; SEM): −14 ± 0.5 °C
- ΔTM c-MycC52, transition at lower temperatures (c-MycC52 [3]; SEM): −3 ± 0.2 °C
- TM c-MycG52 (c-MycG52 [4]): 48 ± 1.0 °C
- ΔTM c-MycG52 (c-MycG52 [4]): +4 ± 0.1 °C
